These results are taken from patent publication US8329706B2, “Oxazolidinone derivatives” (Actelion Pharmaceuticals Ltd., priority 2009, dated 2012).

The target in one assay is T1, human orexin-1 receptor (Homo sapiens, UniProt O43613).
T1 construct: expressed in transfected cells; host or cells: CHO cells (G418 selection)
T1 sequence (O43613 1-425): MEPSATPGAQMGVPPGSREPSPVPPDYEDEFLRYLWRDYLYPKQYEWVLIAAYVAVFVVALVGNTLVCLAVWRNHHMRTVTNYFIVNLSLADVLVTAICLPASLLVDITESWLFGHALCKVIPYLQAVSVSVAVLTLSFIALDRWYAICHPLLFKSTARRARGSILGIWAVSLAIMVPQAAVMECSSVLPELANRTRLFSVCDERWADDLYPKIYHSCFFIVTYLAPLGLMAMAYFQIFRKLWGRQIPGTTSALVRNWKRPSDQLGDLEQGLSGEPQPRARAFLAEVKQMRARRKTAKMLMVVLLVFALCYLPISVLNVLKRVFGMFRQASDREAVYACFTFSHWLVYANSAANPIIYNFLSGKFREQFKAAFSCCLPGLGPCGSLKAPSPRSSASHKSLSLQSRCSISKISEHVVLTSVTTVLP
The assay can be described thus: FLIPR intracellular calcium assay, orexin receptor antagonistic activity (OX1). It is filed as cell-based. Particulars: CHO cells expressing human orexin-1 receptor; agonist 3 nM orexin-A; normalized to on-plate reference; * geomean n = 5, *2 geomean n = 2. The procedure: (§1) The orexin receptor antagonistic activity of the compounds of formula (I) is determined in accordance with the following experimental method.
(§2) Chinese hamster ovary (CHO) cells expressing the human orexin-1 receptor and the human orexin-2 receptor, respectively, are grown in culture medium (Ham F-12 with L-Glutamine) containing 300 μg/ml G418, 100 U/ml penicillin, 100 μg/ml streptomycin and 10% heat inactivated fetal calf serum (FCS). The cells are seeded at 20′000 cells/well into 384-well black clear bottom sterile plates (Greiner). The seeded plates are incubated overnight at 37° C. in 5% CO2.
(§3) Human orexin-A as an agonist is prepared as 1 mM stock solution in MeOH:water (1:1), diluted in HBSS containing 0.1% bovine serum albumin (BSA), NaHCO3: 0.375 g/l and 20 mM HEPES for use in the assay at a final concentration of 3 nM.
(§4) Antagonists are prepared as 10 mM stock solution in DMSO, then diluted in 384-well plates using DMSO followed by a transfer of the dilutions into in HBSS containing 0.1% bovine serum albumin (BSA), NaHCO3: 0.375 g/l and 20 mM HEPES. On the day of the assay, 50 μl of staining buffer (HBSS containing 1% FCS, 20 mM HEPES, NaHCO3: 0.375 g/l, 5 mM probenecid (Sigma) and 3 μM of the fluorescent calcium indicator fluo-4 AM (1 mM stock solution in DMSO, containing 10% pluronic) is added to each well. The 384-well cell-plates are incubated for 50 min at 37° C. in 5% CO2 followed by equilibration at rt for 30-120 min before measurement.
(§5) Within the Fluorescent Imaging Plate Reader (FLIPR Tetra, Molecular Devices), antagonists are added to the plate in a volume of 10 μl/well, incubated for 10 min and finally 10 μl/well of agonist is added. Fluorescence is measured for each well at 1 second intervals, and the height of each fluorescence peak is compared to the height of the fluorescence peak induced by 3 nM orexin-A with vehicle in place of antagonist. For each antagonist, the IC50 value (the concentration of compound needed to inhibit 50% of the agonistic response) is determined and normalized using the obtained IC50 value of a on-plate reference compound. Optimized conditions were achieved by adjustment of pipetting speed and cell splitting regime. The calculated IC50 values of the compounds may fluctuate depending on the daily cellular assay performance. Fluctuations of this kind are known to those skilled in the art.
In general terms: A change in cytosolic calcium serves as a functional read-out for many receptors and channels.

A further assay addresses T2, human orexin-2 receptor (Homo sapiens, UniProt O43614).
T2 construct: expressed in transfected cells; host or cells: CHO cells (G418 selection)
T2 sequence (O43614 1-444): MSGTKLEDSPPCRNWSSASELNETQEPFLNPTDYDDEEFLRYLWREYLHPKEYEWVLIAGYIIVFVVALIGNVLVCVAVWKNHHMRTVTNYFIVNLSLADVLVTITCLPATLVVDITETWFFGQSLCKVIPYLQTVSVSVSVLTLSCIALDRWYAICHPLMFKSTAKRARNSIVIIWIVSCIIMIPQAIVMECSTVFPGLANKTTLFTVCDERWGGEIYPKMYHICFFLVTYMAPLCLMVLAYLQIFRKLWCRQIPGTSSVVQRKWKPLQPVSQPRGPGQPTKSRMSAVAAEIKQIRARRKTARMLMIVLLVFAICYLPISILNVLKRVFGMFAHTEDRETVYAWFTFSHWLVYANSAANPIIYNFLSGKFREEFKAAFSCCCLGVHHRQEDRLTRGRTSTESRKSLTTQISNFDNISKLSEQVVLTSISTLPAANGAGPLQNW
Description: FLIPR intracellular calcium assay, orexin receptor antagonistic activity (OX2). The following applies: CHO cells expressing human orexin-2 receptor; agonist 3 nM orexin-A; normalized to on-plate reference; * geomean n = 5, *2 geomean n = 2. It is filed as cell-based. The procedure: as §1, §2, §3, §4, §5

On to `CCOc1ccccc1C1OCC(=O)N1Cc1cc(C(F)(F)F)ccc1F` (centres unmarked) [Example 13, 2-(2-Ethoxy-phenyl)-3-(2-fluoro-5-trifluoromethyl-benzyl)-oxazolidin-4-one], for which the results for the IC50 at human orexin-1 receptor and on human orexin-2 receptor were above 10 µM and 0.29 µM, respectively.
Regarding `COc1cccc(OC)c1C1OCC(=O)N1Cc1ccc(OCC2CC2)cc1` (centres unmarked) [Example 65, 3-(4-Cyclopropylmethoxy-benzyl)-2-(2,6-dimethoxy-phenyl)-oxazolidin-4-one], the figures for the IC50 at human orexin-1 receptor and on human orexin-2 receptor were 6.32 µM and 0.243 µM, respectively.
Taken in the same sequence, the figures for `CCOc1ccccc1C1OCC(=O)N1Cc1ccccc1C` (centres unmarked) [Example 2, 2-(2-Ethoxy-phenyl)-3-(2-methyl-benzyl)-oxazolidin-4-one] were above 10 µM and 0.223 µM.
Taken in the same sequence, the figures for `COc1cccc(OC)c1C1OCC(=O)N1Cc1ccc(Cl)c(F)c1` (centres unmarked) [Example 39, 3-(4-Chloro-3-fluoro-benzyl)-2-(2,6-dimethoxy-phenyl)-oxazolidin-4-one] were 4.1 µM and 0.795 µM.
In the case of `COc1cccc(OC)c1C1OC(C)(C)C(=O)N1Cc1ccc(Oc2cnccn2)cc1` (centres unmarked) [Example 92, 2-(2,6-Dimethoxy-phenyl)-5,5-dimethyl-3-[4-(pyrazin-2-yloxy)-benzyl]-oxazolidin-4-one], the IC50 – broadly, the concentration needed to halve the response being measured – was 1.21 µM on human orexin-1 receptor and 3.06 µM on human orexin-2 receptor.
For the compound `COc1ccc(CN2C(=O)C(C)(C)OC2c2c(OC)cccc2OC)cc1` (centres unmarked) [Example 72, 2-(2,6-Dimethoxy-phenyl)-3-(4-methoxy-benzyl)-5,5-dimethyl-oxazolidin-4-one], the IC50 on human orexin-1 receptor stood at 0.188 µM; at human orexin-2 receptor it was 2.27 µM.
Taken in the same sequence, the figures for `COc1cccc(OC)c1C1OC(C)(C)C(=O)N1Cc1nc2ccccc2n1C` (centres unmarked) [Example 70, 2-(2,6-Dimethoxy-phenyl)-5,5-dimethyl-3-(1-methyl-1H-benzoimidazol-2-ylmethyl)-oxazolidin-4-one] were 0.065 µM and 1.3 µM.
Turning to `CCOc1ccccc1C1OCC(=O)N1Cc1cccc(C)c1` (centres unmarked) [Example 24, 2-(2-Ethoxy-phenyl)-3-(3-methyl-benzyl)-oxazolidin-4-one], the results for the IC50 on human orexin-1 receptor and at human orexin-2 receptor were above 10 µM and 0.363 µM, respectively.
Taken in the same sequence, the figures for `CCOc1ccc(CN2C(=O)C(C)(C)OC2c2c(OC)cccc2OC)cc1` (centres unmarked) [Example 80, 2-(2,6-Dimethoxy-phenyl)-3-(4-ethoxy-benzyl)-5,5-dimethyl-oxazolidin-4-one] were 0.139 µM and 1.94 µM.
On to `CCOc1ccccc1C1OCC(=O)N1Cc1cccc(OC)c1` (centres unmarked) [Example 4, 2-(2-Ethoxy-phenyl)-3-(3-methoxy-benzyl)-oxazolidin-4-one], for which the IC50 is above 10 µM at human orexin-1 receptor and 0.705 µM at human orexin-2 receptor.
Taken in the same sequence, the figures for `COc1cccc(OC)c1C1O[C@H](C)C(=O)N1Cc1ccc(OC(F)F)cc1` (stereo partly drawn) [Example 52, 3-(4-Difluoromethoxy-benzyl)-2-(2,6-dimethoxy-phenyl)-(R)-5-methyl-oxazolidin-4-one] were 0.726 µM and 0.041 µM.
For `CCCOc1ccc(CN2C(=O)[C@@H](C)OC2c2c(OC)cccc2OC)cc1` (stereo partly drawn) [Example 73, 2-(2,6-Dimethoxy-phenyl)-(R)-5-methyl-3-(4-propoxy-benzyl)-oxazolidin-4-one], the IC50 on human orexin-1 receptor turned out to be 0.581 µM; at human orexin-2 receptor, 0.086 µM.
Taken in the same sequence, the figures for `COc1cccc(OC)c1C1OC(C)(C)C(=O)N1Cc1ccc(OC(F)F)cc1` (centres unmarked) [Example 69, 3-(4-Difluoromethoxy-benzyl)-2-(2,6-dimethoxy-phenyl)-5,5-dimethyl-oxazolidin-4-one] were 0.187 µM and 0.928 µM.
Taken in the same sequence, the figures for `COc1cccc(OC)c1C1OC(C)(C)C(=O)N1Cc1ccc(-c2ccccc2)cc1` (centres unmarked) [Example 87, 3-Biphenyl-4-ylmethyl-2-(2,6-dimethoxy-phenyl)-5,5-dimethyl-oxazolidin-4-one] were 0.064 µM and 1.09 µM.
On to `COc1cccc(OC)c1C1O[C@H](C)C(=O)N1Cc1ccc(Oc2ccccc2)cc1` (stereo partly drawn) [Example 51, 2-(2,6-Dimethoxy-phenyl)-(R)-5-methyl-3-(4-phenoxy-benzyl)-oxazolidin-4-one], for which the IC50 was determined as 0.22 µM on human orexin-1 receptor and 0.025 µM on human orexin-2 receptor.
Taken in the same sequence, the figures for `CCOc1ccccc1C1OCC(=O)N1Cc1ccc(F)cc1` (centres unmarked) [Example 25, 2-(2-Ethoxy-phenyl)-3-(4-fluoro-benzyl)-oxazolidin-4-one] were above 10 µM and 0.199 µM.
Taken in the same sequence, the figures for `COc1cccc(C)c1C1OC(C)(C)C(=O)N1Cc1ccc(OC(F)(F)F)c(Cl)c1` (centres unmarked) [Example 83, 3-(3-Chloro-4-trifluoromethoxy-benzyl)-2-(2-methoxy-6-methyl-phenyl)-5,5-dimethyl-oxazolidin-4-one] were 0.133 µM and 0.069 µM.
In the case of `COc1cccc(F)c1C1OC(C)(C)C(=O)N1Cc1ccc(Oc2ccccc2)cc1` (centres unmarked) [Example 84, 2-(2-Fluoro-6-methoxy-phenyl)-5,5-dimethyl-3-(4-phenoxy-benzyl)-oxazolidin-4-one], the IC50 was 0.421 µM on human orexin-1 receptor and 0.046 µM on human orexin-2 receptor.
As to `CCOc1ccccc1C1OCC(=O)N1Cc1ccc(F)c(C)c1` (centres unmarked) [Example 8, 2-(2-Ethoxy-phenyl)-3-(4-fluoro-3-methyl-benzyl)-oxazolidin-4-one], the values for the IC50 at human orexin-1 receptor and at human orexin-2 receptor were 9.17 µM and 0.584 µM, respectively.
Turning to `COc1cccc(OC)c1C1O[C@H](C)C(=O)N1Cc1ccc(OCC2CC2)cc1` (stereo partly drawn) [Example 75, 3-(4-Cyclopropylmethoxy-benzyl)-2-(2,6-dimethoxy-phenyl)-(R)-5-methyl-oxazolidin-4-one], the IC50 at human orexin-1 receptor amounted to 1.76 µM; at human orexin-2 receptor it was 0.123 µM.
Consider `CCOc1ccccc1C1OCC(=O)N1Cc1ccc(C(F)(F)F)c(F)c1` (centres unmarked) [Example 15, 2-(2-Ethoxy-phenyl)-3-(3-fluoro-4-trifluoromethyl-benzyl)-oxazolidin-4-one], for which the IC50 on human orexin-1 receptor was above 10 µM; at human orexin-2 receptor it was 0.359 µM.
Taken in the same sequence, the figures for `CCOc1ccccc1C1OCC(=O)N1Cc1ccc(C)c(Cl)c1` (centres unmarked) [Example 31, 3-(3-Chloro-4-methyl-benzyl)-2-(2-ethoxy-phenyl)-oxazolidin-4-one] were 7.6 µM and 0.634 µM.
Taken in the same sequence, the figures for `COc1cccc(OC)c1C1OC(C)(C)C(=O)N1Cc1ccc2ccccc2c1` (centres unmarked) [Example 57, 2-(2,6-Dimethoxy-phenyl)-5,5-dimethyl-3-naphthalen-2-ylmethyl-oxazolidin-4-one] were 0.005 µM and 0.151 µM.
For the compound `CCCOc1ccc(CN2C(=O)C(C)(C)OC2c2c(OC)cccc2OC)cc1` (centres unmarked) [Example 77, 2-(2,6-Dimethoxy-phenyl)-5,5-dimethyl-3-(4-propoxy-benzyl)-oxazolidin-4-one], the values for the IC50 at human orexin-1 receptor and at human orexin-2 receptor were 0.114 µM and 0.484 µM, respectively.
Taken in the same sequence, the figures for `COc1cccc(OC)c1C1O[C@H](C)C(=O)N1Cc1ccc(OC(F)(F)F)cc1` (stereo partly drawn) [Example 63, 2-(2,6-Dimethoxy-phenyl)-(R)-5-methyl-3-(4-trifluoromethoxy-benzyl)-oxazolidin-4-one] were 0.26 µM and 0.216 µM.
